Tested on: 648629-189-R-J1-PDC spheroids with HUVEC/MSC, viability
Assay: Anticancer human tumor 648629-189-R-J1-PDC patient-derived bladder carcinoma cell line growth inhibition [PI3K]
Details: for IC50: curve of first compound; for viability, T/C: stronger effect = lower value; active = viability on the fitted dose curve at most 10% of control; inactive = the rest
Text: Combinatorial screen of targeted agents with the PI3K inhibitors inavolisib, alpelisib, duvelisib, and copanlisib in multi-cell type tumor spheroids
A high-throughput screen of multi-cell type tumor spheroids was designed to identify active combinations of targeted small molecules and PI3K pathway inhibitors. Complex spheroids include a stromal component modeled by human endothelial cells (HUVEC) and fibroblasts modeled by human mesenchymal stem cells (MSCs). The concentration ranges selected for each drug and investigational agent were based upon clinically achievable concentrations if the clinical Cmax of the agent was known.
Compounds. The drugs and investigational agents: inavolisib (NSC800729), alpelisib (NSC765974), duvelisib (NSC772469), copanlisib (NSC816437), ipatasertib (NSC767898), afuresertib (NSC778305), talazoparib (NSC767125), sapanisertib (NSC764658), selumetinib (NSC741078), tovorafenib (DAY101, NSC766906), vemurafenib (NSC761431), ravoxertinib (NSC781343), sotorasib (NSC818433), MRTX1133 (NSC 836407), abemaciclib (NSC 768073), palbociclib (NSC758247), venetoclax (NSC 766270), SY5609 (NSC837396), enzalutamide (NSC755605), and darolutamide (NSC825331), were obtained from the National Cancer Institute (NCI) Developmental Therapeutics Program Chemical Repository. The FDA-approved anticancer drug set is available from the NCI Developmental Therapeutics Program. […] The stock solutions were prepared in dimethyl sulfoxide (DMSO, Sigma-Aldrich, St. Louis, MO, cat. D2650) at 800-fold the tested concentration and stored at -70 degrees C prior to their use. All drugs and investigational agents were tested over a range starting from a high concentration at or near the clinical Cmax and decreasing in half-log increments. If the clinical Cmax for an agent had not been determined, the highest concentration tested was 10 microM.
Cell Culture. All cells were maintained in an incubator at 37 degrees C and 5% CO2 with 95% humidity. The PDC lines were cultured according to standard operating procedures established by the NCI PDMR (https://pdmr.cancer.gov/sops/default.htm). All PDCs were thawed and cultured in Matrigel-coated flasks prepared with a working solution of 1X Ham's F-12 nutrient mix, without supplementation (Invitrogen, Waltham, MA, cat. 11765054), 100 U/mL penicillin-streptomycin (Invitrogen, cat. 15140122), and 2.5% Matrigel (Corning Inc., Corning, NY, cat. 354248) for the first three passages. The 354836-022-R-J1-PDC, 475296-252-R-J1-PDC, and 997726-040-R-J2-PDC lines were cultured in 6A media, which includes advanced DMEM/F-12 (Thermo Fisher Scientific, cat. 12634028), 10 mM HEPES (Thermo Fisher Scientific, cat. 15630080), 1X GlutaMAX supplement (Thermo Fisher Scientific, cat. 35050061), 0.1 mg/mL primocin (InvivoGen, San Diego, CA, cat. ant-pm-2), 10% defined fetal bovine serum, heat inactivated (HyClone Laboratories Inc., Logan, UT, cat. SH30070.03HI), 50% L-WRN conditioned media (ATCC, cat. CRL-3276), 1.25 mM N-Acetyl-L-cysteine (Sigma-Aldrich, cat. A9165), 10 mM nicotinamide (Sigma-Aldrich, cat. N0636), 1X B-27 supplement (Thermo Fisher Scientific, cat. 17504044), 1X N-2 supplement (Thermo Fisher Scientific, cat. 17502048), and 10 microM Y-27632 dihydrochloride (Tocris Bioscience, Bristol, United Kingdom, cat. 1254). The 624824-186-R-J2-PDC line was cultured in 6C/Colon 1B media, which includes all 6A media components plus 50 ng/mL human EGF recombinant protein (Thermo Fisher Scientific, cat. PHG0311). […]

[1] = second compound 0.00316 µM, first compound 0.0316 µM
[2] = second compound 0.00316 µM, first compound 0.1 µM
[3] = second compound 0.00316 µM, first compound 0.316 µM
[4] = second compound 0.00316 µM, first compound 1 µM
[5] = second compound 0.00316 µM, first compound 3.16 µM
[6] = second compound 0.00316 µM, first compound 10 µM
[7] = second compound 0.01 µM, first compound 0.0316 µM
[8] = second compound 0.01 µM, first compound 0.1 µM
[9] = second compound 0.01 µM, first compound 0.316 µM
[10] = second compound 0.01 µM, first compound 1 µM
[11] = second compound 0.01 µM, first compound 3.16 µM
[12] = second compound 0.01 µM, first compound 10 µM
[13] = second compound 0.0316 µM, first compound 0.0316 µM
[14] = second compound 0.0316 µM, first compound 0.1 µM
[15] = second compound 0.0316 µM, first compound 0.316 µM
[16] = second compound 0.0316 µM, first compound 1 µM
[17] = second compound 0.0316 µM, first compound 3.16 µM
[18] = second compound 0.0316 µM, first compound 10 µM
[19] = second compound 0.1 µM, first compound 0.0316 µM
[20] = second compound 0.1 µM, first compound 0.1 µM
[21] = second compound 0.1 µM, first compound 0.316 µM
[22] = second compound 0.1 µM, first compound 1 µM
[23] = second compound 0.1 µM, first compound 3.16 µM
[24] = second compound 0.1 µM, first compound 10 µM
[25] = second compound 0.316 µM, first compound 0.0316 µM
[26] = second compound 0.316 µM, first compound 0.1 µM
[27] = second compound 0.316 µM, first compound 0.316 µM
[28] = second compound 0.316 µM, first compound 1 µM
[29] = second compound 0.316 µM, first compound 3.16 µM
[30] = second compound 0.316 µM, first compound 10 µM
[31] = second compound 1 µM, first compound 0.0316 µM
[32] = second compound 1 µM, first compound 0.1 µM
[33] = second compound 1 µM, first compound 0.316 µM
[34] = second compound 1 µM, first compound 1 µM
[35] = second compound 1 µM, first compound 3.16 µM
[36] = second compound 1 µM, first compound 10 µM
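Note: spheroids exposed to agents for seven days before reading.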
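Throughout, for viability, T/C: percent of vehicle control luminescence where 100% = DMSO treated spheroids.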

CC1(C)CCC(CN2CCN(c3ccc(C(=O)NS(=O)(=O)c4ccc(NCC5CCOCC5)c([N+](=O)[O-])c4)c(Oc4cnc5[nH]ccc5c4)c3)CC2)=C(c2ccc(Cl)cc2)C1 + CC(Nc1ccc2c(c1)OCCn1cc(N3C(=O)OCC3C(F)F)nc1-2)C(N)=O
active: viability, T/C [6] 8.54% | viability, T/C [12] 7.49% | viability, T/C [24] 7.86% | viability, T/C [30] 7.9% | viability, T/C [36] 8.61%
4.84 µM: IC50 (second compound 0.01 µM)
4.77 µM: IC50 (second compound 0.00316 µM)
4.45 µM: IC50 (second compound 0.316 µM)
4.34 µM: IC50 (second compound 1 µM)
inactive: viability, T/C [1] 101% | viability, T/C [2] 90.9% | viability, T/C [3] 92.9% | viability, T/C [4] 80.7% | viability, T/C [5] 76.7% | viability, T/C [7] 122% | viability, T/C [8] 88.3% | viability, T/C [9] 106% | viability, T/C [10] 86% | viability, T/C [11] 80.7% | viability, T/C [13] 110% | viability, T/C [14] 102% | viability, T/C [15] 98.2% | viability, T/C [16] 89.5% | viability, T/C [17] 71.3% | viability, T/C [18] 9.16% | viability, T/C [19] 84.5% | viability, T/C [20] 99.8% | viability, T/C [21] 90.5% | viability, T/C [22] 95.6% | viability, T/C [23] 83.8% | viability, T/C [25] 74.7% | viability, T/C [26] 76% | viability, T/C [27] 79.4% | viability, T/C [28] 77.6% | viability, T/C [29] 67.5% | viability, T/C [31] 74.2% | viability, T/C [32] 63.4% | viability, T/C [33] 62.5% | viability, T/C [34] 67.3% | viability, T/C [35] 65.7%
4.55 µM: IC50 (second compound 0.0316 µM)
5.28 µM: IC50 (second compound 0.1 µM)

C[C@@H](NC(=O)c1ncnc(N)c1Cl)c1ncc(C(=O)Nc2cc(C(F)(F)F)c(Cl)cn2)s1 + CC(Nc1ccc2c(c1)OCCn1cc(N3C(=O)OCC3C(F)F)nc1-2)C(N)=O
inactive: viability, T/C [1] 106% | viability, T/C [2] 99.1% | viability, T/C [3] 112% | viability, T/C [4] 115% | viability, T/C [5] 108% | viability, T/C [6] 116% | viability, T/C [7] 111% | viability, T/C [8] 98.8% | viability, T/C [9] 115% | viability, T/C [10] 99.3% | viability, T/C [11] 112% | viability, T/C [12] 101% | viability, T/C [13] 109% | viability, T/C [14] 105% | viability, T/C [15] 97.4% | viability, T/C [16] 102% | viability, T/C [17] 106% | viability, T/C [18] 106% | viability, T/C [19] 103% | viability, T/C [20] 97.8% | viability, T/C [21] 105% | viability, T/C [22] 110% | viability, T/C [23] 98.3% | viability, T/C [24] 97.8% | viability, T/C [25] 94.8% | viability, T/C [26] 93.9% | viability, T/C [27] 83.7% | viability, T/C [28] 86.2% | viability, T/C [29] 96.2% | viability, T/C [30] 86.4% | viability, T/C [31] 76.2% | viability, T/C [32] 74.2% | viability, T/C [33] 69.3% | viability, T/C [34] 77.2% | viability, T/C [35] 78% | viability, T/C [36] 65.5%
> 10 µM: IC50 (second compound 0.00316 µM) | IC50 (second compound 0.01 µM) | IC50 (second compound 0.0316 µM) | IC50 (second compound 0.1 µM) | IC50 (second compound 0.316 µM) | IC50 (second compound 1 µM)

Cn1ncnc1[C@H]1c2n[nH]c(=O)c3cc(F)cc(c23)N[C@@H]1c1ccc(F)cc1 + CC(Nc1ccc2c(c1)OCCn1cc(N3C(=O)OCC3C(F)F)nc1-2)C(N)=O
0.0683 µM: IC50 (second compound 1 µM)
> 0.1 µM: IC50 (second compound 0.00316 µM) | IC50 (second compound 0.01 µM) | IC50 (second compound 0.0316 µM) | IC50 (second compound 0.1 µM) | IC50 (second compound 0.316 µM)
inactive: viability, T/C (second compound 0.00316 µM, first compound 0.000316 µM) 108% | viability, T/C (second compound 0.00316 µM, first compound 0.001 µM) 110% | viability, T/C (second compound 0.00316 µM, first compound 0.00316 µM) 102% | viability, T/C (second compound 0.00316 µM, first compound 0.01 µM) 83.5% | viability, T/C [1] 75.6% | viability, T/C [2] 63.8% | viability, T/C (second compound 0.01 µM, first compound 0.000316 µM) 115% | viability, T/C (second compound 0.01 µM, first compound 0.001 µM) 106% | viability, T/C (second compound 0.01 µM, first compound 0.00316 µM) 97.3% | viability, T/C (second compound 0.01 µM, first compound 0.01 µM) 86.4% | viability, T/C [7] 69.4% | viability, T/C [8] 62% | viability, T/C (second compound 0.0316 µM, first compound 0.000316 µM) 101% | viability, T/C (second compound 0.0316 µM, first compound 0.001 µM) 99.2% | viability, T/C (second compound 0.0316 µM, first compound 0.00316 µM) 96% | viability, T/C (second compound 0.0316 µM, first compound 0.01 µM) 79.2% | viability, T/C [13] 82% | viability, T/C [14] 61.7% | viability, T/C (second compound 0.1 µM, first compound 0.000316 µM) 97.8% | viability, T/C (second compound 0.1 µM, first compound 0.001 µM) 93.4% | viability, T/C (second compound 0.1 µM, first compound 0.00316 µM) 105% | viability, T/C (second compound 0.1 µM, first compound 0.01 µM) 77.5% | viability, T/C [19] 70.2% | viability, T/C [20] 55.3% | viability, T/C (second compound 0.316 µM, first compound 0.000316 µM) 76% | viability, T/C (second compound 0.316 µM, first compound 0.001 µM) 86.7% | viability, T/C (second compound 0.316 µM, first compound 0.00316 µM) 73.3% | viability, T/C (second compound 0.316 µM, first compound 0.01 µM) 69.7% | viability, T/C [25] 60.9% | viability, T/C [26] 55.5% | viability, T/C (second compound 1 µM, first compound 0.000316 µM) 69.5% | viability, T/C (second compound 1 µM, first compound 0.001 µM) 60.5% | viability, T/C (second compound 1 µM, first compound 0.00316 µM) 69.2% | viability, T/C (second compound 1 µM, first compound 0.01 µM) 66% | viability, T/C [31] 61% | viability, T/C [32] 44.4%
